Legend:
[1] = molecular target: T1, interaction between PD-1 and PD-L1 (Homo sapiens, UniProt Q9NZQ7); assay: PD1-PDL1 HTRF binding activity test; conditions: Cisbio PD-1/PD-L1 binding assay kit; percent inhibition vs DMSO
T1 construct: purchased Cisbio 64ICP01PEG or 64ICP01PEH
Procedure: The effect of compounds of the examples of the present invention on the interaction between PD-1 and PD-L1 was determined by the PD-1/PD-L1 binding assay kit from Cisbio (#64ICP01PEG or 64ICP01PEH). The detailed experimental process was as follows:
1) Pre-diluted compound solution, 4 μL of Tag1-PD-L1 and 4 μL of Tag2-PD1 were added to each well of a 384-well plate;
2) After the mixture was incubated at room temperature for 15 min, 5 μL of anti-Tag1-Eu3+ antibody and 5 μL of anti-Tag2-XL665 antibody were then added;
3) After incubated for 2 hrs at room temperature or overnight at 4° C., plates were read on Envision of Perkin Elmer; and readings at 665 nm and 620 nm were recorded, and the ratio of the two readings was taken as a reading for each well;
4) The reading of each well after compound treatment was compared with the reading of DMSO treated wells to obtain the percent inhibition of the compound; and
5) IC50 values of compounds of the examples of the present invention were determined by non-linear regression analysis of percent inhibition at different compound concentrations.

[2] = molecular target: T2, interaction between PD-1 and PD-L1 expressed on cell surfaces (Jurkat/NF-κB-luc/PD1 cells cocultured with Raji-PD-L1 cells) (Homo sapiens, UniProt Q9NZQ7); assay: Jurkat reporter gene cellular assay; assay type: cell-based; conditions: OKT3 1 μg/mL stimulation, 6 hrs, activation fold vs DMSO
T2 construct: expressed in transfected cells; host or cells: Raji cells (PD-L1); Jurkat cells (PD-1, NF-κB-luc reporter)
Procedure: The effect of compounds of the examples of the present invention on the interaction between PD-1 and PD-L1 expressed on cell surfaces, and the related influence on T cell functions, were determined by a Jurkat reporter gene cellular assay.
Briefly, the reporter gene plasmid of NF-κB-luc and the plasmid of human PD-1 were transfected into Jurkat cells to establish a stably transfected cell line capable of stably expressing both PD-1 and NF-κB-Luc reporter genes; the expression level of PD-1 on the cell surface was confirmed by flow cytometry; and the expression of the reporter gene was confirmed via the response of the reporter gene stimulated by OKT-3 and Raji cells.
In addition, the plasmid of human PD-L1 was transfected into Raji cells to obtain a cell line capable of stably expressing PD-L1. Jurkat/NF-κB-luc/PD1 cells and Raji-PD-L1 cells were then cocultured and stimulated with OKT-3. On this basis, the compounds were added, and the enhancement of the signal pathway of T cell activation by the inhibitory effect of the compounds on the interaction between PD-1 and PD-L1 was evaluated by readings of reporter gene responses. The specific experimental process was as follows:
1) 30 μL of compound or antibody solution was added to each well of a white 96-well plate (Corning, 3610) at different diluted concentrations, and 10 μL of OKT3 (Biolegend, 317326) was then added (the final concentration of OKT3: 1 μg/mL);
2) 20 μL of Raji-PD-L1 cell suspension was added to each well with 5*10^4 cells for each well, and was incubated in an incubator for 20 min;
3) 20 μL of Jurkat/NF-Kb-luc/PD-1 cell suspension was added to each well with 5*10^4 cells for each well, and was well mixed, and 6 hrs later, Bright-glo (Promega, E2620) was applied and plates were read on Envision;
4) The reading of each well treated with the compound was compared with the reading of each well treated with DMSO to obtain the activation fold of the compound; and
5) EC50 values of compounds of the examples of the present invention were determined by non-linear regression analysis of activation folds at different compound concentrations.

T1 sequence (Q9NZQ7 19-238 limits assumed): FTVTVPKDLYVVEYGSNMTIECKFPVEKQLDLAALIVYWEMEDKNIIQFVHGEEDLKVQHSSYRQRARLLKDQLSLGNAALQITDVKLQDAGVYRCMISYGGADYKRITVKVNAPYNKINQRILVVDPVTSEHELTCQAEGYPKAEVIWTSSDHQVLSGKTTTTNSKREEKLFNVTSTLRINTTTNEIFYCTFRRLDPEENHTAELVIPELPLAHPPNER
T2 sequence (Q9NZQ7 19-290): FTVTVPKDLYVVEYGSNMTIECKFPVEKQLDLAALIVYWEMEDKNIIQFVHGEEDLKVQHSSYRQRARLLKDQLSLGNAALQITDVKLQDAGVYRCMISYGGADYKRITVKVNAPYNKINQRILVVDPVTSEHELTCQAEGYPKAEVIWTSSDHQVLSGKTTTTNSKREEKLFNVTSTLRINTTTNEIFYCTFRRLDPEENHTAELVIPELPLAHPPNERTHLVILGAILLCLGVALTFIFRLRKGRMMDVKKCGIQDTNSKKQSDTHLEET

| Compound | IC50 [1] [nM] | EC50 [2] [nM] |
| --- | --- | --- |
| Cc1c(NC(=O)c2cc(C3CC3)c(CNC(C)CO)cn2)cccc1-c1cccc(NC(=O)c2cc(C3CC3)c(CN3CCCC[C@H]3C(=O)O)cn2)c1C (stereo in doubt) [Example 3, (S)-1-((4-cyclopropyl-6-((3′-(4-cyclopropyl-5-((((R)-1-hydroxypropan-2-yl)amino)methyl)picolinamido)-2,2′-dimethyl-[1,1′-biphenyl]-3-yl)carbamoyl)pyridin-3-yl)methyl)piperidine-2-carboxylic acid] | 1.07 | 14.9 |
| Cc1c(NC(=O)c2cc(C3CC3)c(CNCCO)cn2)cccc1-c1cccc(NC(=O)c2cc(C3CC3)c(CN3CCCC[C@H]3C(=O)O)cn2)c1C [Example 1, (S)-1-((4-cyclopropyl-6-((3′-(4-cyclopropyl-5-(((2-hydroxyethyl)amino)methyl)picolinamido)-2,2′-dimethyl-[1,1′-biphenyl]-3-yl)carbamoyl)pyridin-3-yl)methyl)piperidine-2-carboxylic acid] | 1.07 | 6.8 |
| Cc1c(NC(=O)c2cc(C3CC3)c(CN[C@H](C)CO)cn2)cccc1-c1cccc(NC(=O)c2cc(C3CC3)c(CN3CCCC[C@H]3C(=O)O)cn2)c1C [Example 2, (S)-1-((4-cyclopropyl-6-((3′-(4-cyclopropyl-5-((((R)-1-hydroxypropan-2-yl)amino)methyl)picolinamido)-2,2′-dimethyl-[1,1′-biphenyl]-3-yl)carbamoyl)pyridin-3-yl)methyl)piperidine-2-carboxylic acid] | 1.21 | 9.2 |
| Cc1c(NC(=O)c2cc(C3CC3)c(CN[C@H]3CCC[C@@H]3O)cn2)cccc1-c1cccc(NC(=O)c2cc(C3CC3)c(CN3CCCC[C@H]3C(=O)O)cn2)c1C [Example 4, (S)-1-((4-cyclopropyl-6-((3′-(4-cyclopropyl-5-((((1S,2S)-2-hydroxycyclopentyl)amino)methyl)picolinamido)-2, 2′-dimethyl-[1,1′-biphenyl]-3-yl)carbamoyl)pyridin-3-yl)methyl)piperidine-2-carboxylic acid] | 1.02 | 3.2 |
| Cc1c(NC(=O)c2cc(C3CC3)c(CN[C@@H]3CCC[C@H]3O)cn2)cccc1-c1cccc(NC(=O)c2cc(C3CC3)c(CN3CCCC[C@H]3C(=O)O)cn2)c1C [Example 6, (S)-1-((4-cyclopropyl-6-((3′-(4-cyclopropyl-5-((((1R,2R)-2-hydroxycyclopentyl)amino)methyl)picolinamido)-2, 2′-dimethyl-[1,1′-biphenyl]-3-yl)carbamoyl)pyridin-3-yl)methyl)piperidine-2-carboxylic acid] | 1.69 | 49.3 |
| CNCc1cnc(C(=O)Nc2cccc(-c3cccc(NC(=O)c4cc(C5CC5)c(CN5CCCC[C@H]5C(=O)O)cn4)c3C)c2C)cc1C1CC1 [Example 7, (S)-1-((4-cyclopropyl-6-((3′-(4-cyclopropyl-5-((methylamino)methyl)picolinamido)-2,2′-dimethyl-[1,1′-biphenyl]-3-yl)carbamoyl)pyridin-3-yl)methyl) piperidine-2-carboxylic acid] | 0.49 | 24.1 |
| CCNCc1cnc(C(=O)Nc2cccc(-c3cccc(NC(=O)c4cc(C5CC5)c(CN5CCCC[C@H]5C(=O)O)cn4)c3C)c2C)cc1C1CC1 [Example 8, (S)-1-((4-cyclopropyl-6-((3′-(4-cyclopropyl-5-((ethylamino)methyl)picolinamido)-2,2′-dimethyl-[1,1′-biphenyl]-3-yl)carbamoyl)pyridin-3-yl)methyl) piperidine-2-carboxylic acid] | 1.27 | 23.8 |

Other lines, results leading:

| IC50 [1] [nM] | EC50 [2] [nM] | Compound |
| --- | --- | --- |
| 5.1 | 33.9 | Cc1c(NC(=O)c2cc(C3CC3)c(CNC(C)C)cn2)cccc1-c1cccc(NC(=O)c2cc(C3CC3)c(CN3CCCC[C@H]3C(=O)O)cn2)c1C [Example 9, (S)-1-((4-cyclopropyl-6-((3′-(4-cyclopropyl-5-((isopropylamino)methyl)picolinamido)-2,2′-dimethyl-[1,1′-biphenyl]-3-yl)carbamoyl)pyridin-3-yl)methyl) piperidine-2-carboxylic acid] |
| 3.38 | 120 | Cc1c(NC(=O)c2cc(C3CC3)c(CNC3CC3)cn2)cccc1-c1cccc(NC(=O)c2cc(C3CC3)c(CN3CCCC[C@H]3C(=O)O)cn2)c1C [Example 10, (S)-1-((4-cyclopropyl-6-((3′-(4-cyclopropyl-5-((cyclopropylamino)methyl)picolinamido)-2,2′-dimethyl-[1,1′-biphenyl]-3-yl)carbamoyl)pyridin-3-yl)methyl) piperidine-2-carboxylic acid] |
| 3.19 | 14.5 | Cc1c(NC(=O)c2cc(C3CC3)c(CNC3CCCC3)cn2)cccc1-c1cccc(NC(=O)c2cc(C3CC3)c(CN3CCCC[C@H]3C(=O)O)cn2)c1C [Example 11, (S)-1-((4-cyclopropyl-6-((3′-(4-cyclopropyl-5-((cyclopentylamino)methyl)picolinamido)-2,2′-dimethyl-[1,1′-biphenyl]-3-yl)carbamoyl)pyridin-3-yl)methyl) piperidine-2-carboxylic acid] |
| 1.02 | 10.6 | Cc1c(NC(=O)c2cc(C3CC3)c(CN3CCCC3)cn2)cccc1-c1cccc(NC(=O)c2cc(C3CC3)c(CN3CCCC[C@H]3C(=O)O)cn2)c1C [Example 12] |
| 1.48 | 11.8 | Cc1c(NC(=O)c2cc(C3CC3)c(CN3CC[C@@H](O)C3)cn2)cccc1-c1cccc(NC(=O)c2cc(C3CC3)c(CN3CCCC[C@H]3C(=O)O)cn2)c1C [Example 13, (S)-1-((4-cyclopropyl-6-((3′-(4-cyclopropyl-5-(((R)-3-hydroxypyrrolidin-1-yl)methyl)picolinamido)-2,2′-dimethyl-[1,1′-biphenyl]-3-yl)carbamoyl)pyridin-3-yl)methyl)piperidine-2-carboxylic acid] |
| 1.76 | 8.2 | Cc1c(NC(=O)c2cc(C3CC3)c(CN3CC[C@H](O)C3)cn2)cccc1-c1cccc(NC(=O)c2cc(C3CC3)c(CN3CCCC[C@H]3C(=O)O)cn2)c1C [Example 14, (S)-1-((4-cyclopropyl-6-((3′-(4-cyclopropyl-5-(((S)-3-hydroxypyrrolidin-1-yl)methyl)picolinamido)-2,2′-dimethyl-[1,1′-biphenyl]-3-yl)carbamoyl)pyridin-3-yl)methyl)piperidine-2-carboxylic acid] |
| 0.68 | 15.1 | Cc1c(NC(=O)c2cc(C3CC3)c(CN3CC(C)(O)C3)cn2)cccc1-c1cccc(NC(=O)c2cc(C3CC3)c(CN3CCCC[C@H]3C(=O)O)cn2)c1C [Example 15, (S)-1-((4-cyclopropyl-6-((3′-(4-cyclopropyl-5-((3-hydroxy-3-methylazetidin-1-yl)methyl)picolinamido)-2,2′-dimethyl-[1,1′-biphenyl]-3-yl)carbamoyl)pyridin-3-yl)methyl)piperidine-2-carboxylic acid] |
| 2.57 | 77.5 | Cc1c(NC(=O)c2cc(C3CC3)c(CNC3COC3)cn2)cccc1-c1cccc(NC(=O)c2cc(C3CC3)c(CN3CCCC[C@H]3C(=O)O)cn2)c1C [Example 23, (S)-1-((4-cyclopropyl-6-((3′-(4-cyclopropyl-5-((oxetan-3-ylamino)methyl)picolinamido)-2,2′-dimethyl-[1,1′-biphenyl]-3-yl)carbamoyl)pyridin-3-yl)methyl)piperidine-2-carboxylic acid] |
| 64.3 | – | CCOC(=O)[C@@H](CO)NCc1cnc(C(=O)Nc2cccc(-c3cccc(NC(=O)c4cc(C5CC5)c(CN5CC(C)(O)C5)cn4)c3C)c2C)cc1C1CC1 [Example 36-1, ethyl ((4-cyclopropyl-6-((3′-(4-cyclopropyl-5-((3-hydroxy-3-methylazetidin-1-yl)methyl)picolinamido)-2,2′-dimethyl-[1,1′-biphenyl]-3-yl)carbamoyl)pyridin-3-yl)methyl)-D-serinate] |
